US20230270764A1, “COMPOSITION COMPRISING CANNABINOIDS, TERPENES, AND FLAVONOIDS FOR TREATING DEPRESSION” (priority 2020, published 2023)

System: LPS-injected mice
Assay: Sucrose preference test in the LPS-induced model of depression
Assay type: in vivo
Details: Example 9; male C57BL/6, i.p. 1 h before LPS 330 µg/kg; mg/kg: CBD 30; CBDA 1 or 5; BCP 50; kaempferol 30; CBD 30 plus THC 10; CBD 30 plus kaempferol 30
Source text: In a preliminary screening experiment, subjects were 4-6 months-old male C57BL/6 (Jackson Laboratories, USA). Animals were housed 2-3/cage, kept in an air-conditioned room (23+°C) and given ad libitum access to food and water. The mice were kept in a reversed light/dark cycle, with lights off from 7 a.m. to 7 p.m. All experiments were approved by the Hebrew University of Jerusalem Ethics Committee on Animal Care and Use. In preparation for the Sucrose Preference Test, mice were habituated 2-3 times to sucrose drinking, by exposing them overnight to two graduated tubes, one containing water and the other containing sucrose solution (1%, w/v). Water and sucrose consumption were measured, and sucrose preference was computed by dividing the amount of sucrose consumed by drinking (ml sucrose) by the total drinking volume (ml of sucrose + water). One day later, the weight of the mice and the food in their cages was weighed for later analysis of food consumption and body weight changes. Groups of mice were injected intraperitoneally (i.p.) with either vehicle (cremophor, ethanol and PBS, 1:1:18 (v/v/v)) or a cannabinoid-based formulation (by itself or with another cannabinoid, or a terpene or a flavonoid). One hour later, each of these groups was injected with LPS (330 µg/kg). All injections were administered at a dose of 10 ml/kg. Four hours following the LPS injection, mice were tested in the Open-Field Test. In this test, the measured locomotor activity reflects not only motor capacity, but particularly the innate motivation for spatial exploration (which increases the distance travelled) and the anxiety level (which reduces the distance travelled, in general, and particularly the distance and time spent in the center of the open field). Each subject was placed near one of the walls of a white 50 X 50 cm^2 arena with 40 cm high walls. The distance travelled (cm), the velocity of the movement (cm/second), the time spent (seconds), distance travelled (cm) in the center area of the arena, as well as the number of entries from the perimeter area into the center of the arena were automatically measured over a 4-minute period, using EthoVision XT video tracking system and software (Noldus, The Netherlands). Twenty-four hours after the LPS injection, mice were tested in the Social Exploration Test. […] Social exploration, defined as the time of near contact between the nose of the subject and the juvenile in the small cage was recorded for 4 min, using computerized in-house software. Sucrose preference was assessed, as described above, between 8 to 27 hr post LPS injection. Body weight and weight of the food were measured two hours before the LPS injection, and again after 24 hours, and the change in body weight and food consumption were calculated. […]

C=C1CC/C=C(\C)CC[C@@H]2[C@@H]1CC2(C)C [β-caryophyllene]
sucrose preference compared with vehicle-treated groups: significantly increased sucrose preference
